Laboratory results reported in PMC12631912, “A Multifunctional Molecular Probe for Multimodal Imaging‐Guided Potent Photothermal/Photodynamic Therapy of Endometriosis” (Advanced Science, 2025).

Tests used:
[1] = T1 relaxivity (r1) of probe solutions by MRI; type: physicochemical; details: in PBS, 3.0 T MRI scanner, room temperature; slope of 1/T1 versus Gd concentration; n = 3 regions of interest
Description: An inversion recovery spin echo sequence was executed with the parameters: repetition time (TR) = 5.27 ms, echo time (TE) = 2.29 ms, field of view (FOV) = 160 mm × 160 mm, acquisition matrix = 336 × 336, acquisition voxel = 0.48 mm × 0.48 mm × 2 mm, slice thickness = 2 mm, reconstruction matrix = 672 × 672, reconstruction voxel = 0.24 mm × 0.24 mm × 2 mm, number of flip angles = 4 (3°, 6°, 9°, 13°), and NSA = 1. Regions of interest (ROI, average size 10 mm^2) were analyzed to acquire the T1 relaxation times. The r 1 was then calculated based on the slope of the linear plot between 1/T1 and Gd concentration, determined through linear least‐squares regression analysis.

[2] = ROS generation in solution with DPBF indicator under 808 nm laser; type: physicochemical; details: C ICG = 10 µg mL^−1 in methanol, DPBF absorbance at 410 nm, 808 nm laser 1.0 W cm^−2, within 10 min
Description: The generation of ROS was quantified using DPBF as a probe. […] The gradual decrease in the UV absorption of DPBF was monitored using a UV–vis spectrophotometer, and the correlation between the UV absorbance values and the laser exposure time was recorded.

[3] = Photothermal heating and photothermal conversion efficiency of probe solutions; type: physicochemical; details: for temperature elevation of solution: 808 nm laser, 1.0 W cm^−2, 5 min
Description: Subsequently, a digital thermographic camera (Fluke Ti27, IR Fusion Technology, USA) was used to capture infrared thermal images and measure temperatures. The relationship between temperature values and laser irradiation duration was recorded using AnalyzIR software (4.0.0). […] The PCE (η) was subsequently calculated based on these measurements.^[ [41] ^]

[4] = tested on: Ishikawa cells; experiment: In vitro photothermal/photodynamic therapy, CCK-8 viability after laser; type: cell-based; details: CCK-8, 2 h incubation, 808 nm, 1.0 W cm^−2, 5 min, concentration of the quoted value not stated (range 2.5 to 50 µg mL^−1 ICG), mean ± SD, n = 4
Description: Ishikawa cells and EESCs were seeded in a 96‐well plate at a density of 1 × 10^4 cells per well and allowed to adhere overnight. […] Following this incubation, the cells were irradiated with an 808 nm laser (1.0 W cm^−2, 5 min). The viability of cells was measured using the CCK‐8 assay.

[5] = tested on: EMS lesions; experiment: In vivo photoacoustic imaging of EMS lesions; design: species or system BALB/c nude mice; details: EMS nude mice, ICG 4 µg g^−1 i.v., imaging to 48 h; n = 3
Description: PAI was conducted using a TomoWave LOIS‐3D series photoacoustic imaging system before injection and at 30 min, 5 h, 24 h, and 48 h post‐injection. Photoacoustic image processing and analysis were conducted using LOIS View 3D software and ImageJ 1.53e. ROIs were manually delineated on axial photoacoustic images to quantify lesion signal intensity (SI).

[6] = tested on: EMS lesions; experiment: In vivo T1-weighted MRI of EMS lesions; design: species or system Wistar female rats; details: EMS rats, 4.5 mg Gd per kg i.v., 30 min and 5 h post-injection, 3.0 T
Description: Prior to the imaging procedure, the rats were anesthetized through intraperitoneal injection of 1% sodium pentobarbital at a dosage of 45 mg kg^−1. Following anesthesia, the rats were positioned inside a 3.0 T MRI scanner sourced from the First Hospital of Sun Yat‐sen University.
Prior to drug administration, the rats underwent T 1‐weighted imaging using the fast spin‐echo sequence with the following parameters: TR = 400 ms; TE = 12 ms; FOV = 80 mm × 80 mm; matrix size = 672 × 672; voxel size = 0.24 mm × 0.24 mm; slice thickness = 1 mm; flip angle = 150°; and NSA = 5.
T 1‐weighted imaging using the fast spin‐echo sequence was repeated at 30 min and 5 h post‐injection, respectively, with adjusted parameters: TR = 425 ms; TE = 12 ms; FOV = 80 mm × 80 mm; matrix size = 384 × 384; voxel size = 0.42 mm × 0.42 mm; slice thickness = 1 mm; flip angle = 150°; and NSA = 7.

[7] = tested on: endometriotic lesions; experiment: In vivo anti-EMS efficacy, xenograft model; design: species or system BALB/c nude mice; details: xenograft EMS nude mice
Description: As shown in previous references,^[ [19] ^] to establish a xenograft EMS model in nude mice, female BALB/c nude mice (5‐6 weeks, 18‐20 g) served as recipients, and female Sprague–Dawley rats (7‐9 weeks, 200–240 g) with regular 4–5 days estrous cycles were selected as donors after a week of acclimatization. Prior to surgery, nude mice received daily intramuscular β‐estradiol 17‐pentanoate (0.25 µg g^−1) for 3 days. The EMS model was induced by subcutaneous transplantation of ≈40 mg of rat uterine fragments into nude mice. The uterine horns from euthanized donors were sterilely collected, bisected, minced, and suspended in DMEM/F12 medium before injection. Nude mice then received β‐estradiol 17‐pentanoate (0.25 µg g^−1) injections every 2 days, and endometriotic lesions reaching 100 mm^3 were used for subsequent experiments.
Mice were injected with different formulations via the tail vein every 3 days until euthanasia, with an ICG dose of 3 mg kg^−1. For groups receiving NIR laser irradiation, the procedure was conducted 1 h post‐administration with a power of 1.0 W cm^− ^2 for 10 min. Mouse body weights were recorded every 3 days, and xenograft growth was monitored using a vernier caliper. EMS rats (n = 4) underwent the same treatment strategy after 28 days of autotransplantation, with body weight changes monitored every 3 days. After 18 days of treatment, rats were euthanized for autograft size measurement. Nude mice were euthanized after 18 days for graft extraction, followed by H&E staining and TUNEL assay. Briefly, sections were deparaffinized, hydrated, stained with H&E, and visualized under an optical microscope.
TUNEL staining was performed following the instructions provided in the FITC TUNEL Cell Apoptosis Detection Kit (G1501, Servicebio, Wuhan). Paraffin sections were dewaxed, hydrated, repaired with proteinase K, and permeabilized with Triton X‐100. After incubating with buffer at room temperature for 10 min, a reaction solution containing TdT enzyme, dUTP, and buffer (1:5:50 ratio) was added and incubated at 37 °C for 1 h. Nuclei were counterstained with DAPI for 10 min, followed by three 5 min PBS washes (pH 7.4) on a decolorizing shaker. The slides were then blocked with an anti‐fluorescence quenching blocker (G1401, Sevier, Wuhan). The slides were visualized under CLSM with DAPI (blue light, excited at 330–380 nm, emitted at 420 nm) and FITC (green light, excited at 465–495 nm, emitted at 515–555 nm).

Row | Substance | T 1 relaxivities (r 1) [1] | reduction in DPBF absorbance (ROS generation) [2] | temperature elevation of solution ([3]; C ICG = 50 µg mL^−1 in PBS) | cell viability after laser irradiation [4] | PA signal in lesions over time [5] | T 1-weighted signal intensity at the lesion site [6] | H&E histology of ectopic lesions, probe + laser ([7]; after 18 days of treatment) | maximum temperature increase ([3]; 50 µg/mL, 1 W/cm², laser on/off, 5 photothermal cycles (Figure S12a)) | Photothermal conversion efficiency (PCE) ([3]; C ICG = 50 µg mL^−1 in PBS, 808 nm, 1 W/cm², calculated from heating and cooling curves) | therapeutic efficacy, probe + laser ([7]; ICG 3 mg kg^−1 i.v. every 3 days, 808 nm 1.0 W cm^−2 10 min, 18 days, n = 5) | TUNEL assay of lesions, probe + laser ([7]; after 18 days of treatment)
1 | ICG‐lys‐DTPA@Gd [ILD] | 5.37 mM⁻¹ s⁻¹ | ~56% | ≈ 20 °C | 48.41 ± 1.74% | rapid signal attenuation | no significant increase | pronounced graft growth suppression |  |  |  | 
2 | c(RGDyK)‐ICG‐lys‐DTPA@Gd (head to tail) [cRGD‐ILD, targeting theranostic probe integrating cRGD peptide, ICG fragment and DTPA@Gd complex] | 4.85 mM⁻¹ s⁻¹ | ≈ 58% | ≈ 20 °C | 23.8 ± 1.36% | sustained elevated PA signal intensities at 5 and 24 h | notable enhancement | pronounced graft growth suppression | ≈ 45 °C | 29.81% | outperformed the ILD + laser combination | peak apoptotic activity
